Broadly, the viability is a read-out of living cells in per cent, often relative to untreated cells. For orientation: melting point means the temperature of the solid-liquid transition.

Where two headings read alike, the source gives them in different places.

From paper PMC10994559 (PLOS Neglected Tropical Diseases, 2024) come the findings set out here.

The test system of data set [1] is L. infantum promastigotes. Put plainly: L. infantum promastigote viability, resazurin reduction. The settings on record: sheet LTC_compound_viability, value ± spread. The class given is cell-based, Leishmania infantum. The text has this: (§1) The infectivity of the parasites was boosted by passaging in Balb/c mice and culturing the infected lymph nodes after six weeks. L. infantum (MHOM / BR / 76 / M4192) parasite was passaged in the same media formulation with 0.5% urine.
A general note: Resazurin is reduced to fluorescent resorufin, in cell work by metabolically active cells.

Data set [2] relates to L. major axenic amastigotes. Put plainly: L. major axenic amastigote viability, resazurin reduction. Here is the method:
L. major LV561(MHOM/IL/67/LRC-L137 JERICHO II) amastigotes were passaged in Grace insect medium supplemented with NaHCO3, 0.1% amikin and 20% of FCS (pH: 5.4) and kept at 33°C.
Exponential growth phase promastigotes of L. major or L. infantum and axenic amastigotes (L. major) were harvested and seeded in 384 well plates (white, non-transparent, tissue culture treated, flat bottom; Corning) (0.5x10^5 cells per well). Compounds were pre-dispensed into the plate with an Echo 650 acoustic dispenser (Beckman Coulter). After 72h incubation, resazurin was added (1:10 v/v) from a […] stock in PBS, followed by incubation for six hours. Then, fluorescence intensity was measured using a microplate reader (Synergy H1, BioTek) with excitation filter: 550 nm and emission filter: 590 nm. Efficient compounds were selected for the next round of viability assay with 2.5 μM concentrations of the compounds. […] All experiments were performed with AmB as a positive control drug in parallel.
Axenic amastigotes, the relevant form that persists in the infected host, were generated in the lab through established procedures, employing harsh pH (pH 5) and high temperature (33°C) conditions.

Another data set concerns L. major promastigotes. As to the kind of experiment: L. major promastigote viability, resazurin reduction. It is filed as cell-based, Leishmania major. The settings on record: for viability at 25 µM: Leishmania major, read-out: viability, L.major promastigote (25 µM).
Source text: as §1

In another data set the test system is T. brucei brucei BSF. As to the kind of experiment: T. brucei BSF viability, resazurin reduction. It is filed as cell-based, Trypanosoma brucei brucei. Here is the method:
T. brucei brucei (strain 427 Lister) blood stream form (BSF) parasites were passaged in complete HMI-9 media supplemented with 10% FCS, Pen-Strep (0.1%) and 2-mercaptoethanol (0.014 v/v) and kept in a 37° C CO2 incubator in filter-cap flasks.
(§2) Viability of T. brucei brucei BSF and T. cruzi trypomastigotes was assayed with fluorescence resazurin reduction assay, essentially as described above. […] Next, selected compounds were tested at 2.5 μM concentration, and promising compounds subjected to 18 concentrations dose response analyses. AN3057 and AmB were used as a control drug in T. brucei and T. cruzi, respectively.

The next data set deals with T. cruzi trypomastigotes. As to the kind of experiment: T. cruzi viability, resazurin reduction. The class given is cell-based, Trypanosoma cruzi. The method, then:
T. cruzi (Y strain) trypomastigotes were passaged in liver infusion broth media supplemented with tryptose, NaCl, Na2HPO4, KCl, glucose, hemin, Pen-Strep (1%), 10% FCS (pH: 7.2) and kept at 28°C.
as §2

Data set [3] in a line: Cytotoxicity assay J774, resazurin reduction. The class given is cell-based, murine. The settings on record: mouse, J774 macrophage cells. The method, then:
(§3) Mammalian cell lines (J774 and HepG2) were passaged in RPMI media supplemented with MEM, Pen-Strep (1%) and 10% FCS. Cultures were kept at 37°C incubator with 5% CO2 in filter-cap flasks.
(§4) Murine macrophage cells (J774) and human hepatocyte carcinoma HepG2 cells were seeded at 0.5x10^5 cell/well in 384 well plates in triplicate, exposed to serial dilution of compounds, dispensed using an Echo 650 acoustic dispenser (Labcyte). After incubation for 72 h at 37°C, 5% CO2, cell viability was determined using fluorescence resazurin reduction assay (λEx: 550 nm; λEm: 590 nm).

Data set [4] has as its system intracellular L. infantum amastigotes. As to the kind of experiment: Parasite rescue assay (intramacrophage, J774 infected with L. infantum). The class given is cell-based, Leishmania infantum.
In a further data set the test system is E. histolytica. Put plainly: E. histolytica viability, ATP luminescence (Cell titer glo). It is filed as cell-based, Entamoeba histolytica. Here is the method:
Entamoeba histolytica (strain B2-5) was passaged in TY-1 medium (Trypticase peptone BBL, Yeast extract BBL, glucose, NaCl, K2HPO4, KH2PO4, cysteine, ascorbic acid, ammonium iron citrate, adult bovine serum, Diamond tween 80, penicillin G, amikacin (pH:6.8)) and kept in 37°C incubator in completely filled tubes with closed lid.
Viability of E. histolytica was assayed via a luminescence assay based on ATP quantification in the live cells. Briefly, 2.5x10^4 cell/ml were exposed to 25 μM of compounds in 96 well plates (non-transparent, tissue culture treated, flat bottom; SPL Life Sciences) in triplicate for 48h. Plates were incubated in sealed anaerobic bags (Oxoid AGS) together with an Anaerogen compact bag (Thermo Scientific) and anaerobic indicator (Thermo Scientific) at 37°C. Then, Cell titer glo reagent (Promega) was added to the reaction (1:5) according to manufacturers’ instruction. After 15 min of orbital shaking, followed by 10 min incubation at RT, ATP-bioluminescence was quantified at RT using a Synergy H1 plate reader (Synergy H1, BioTek). Metronidazole was included as control drug in all the assays for E. histolytica. Test compounds indicating significant growth reduction in the primary screen were subjected to potency determination. These secondary screens were essentially carried out as detailed above, but with a 9 to 16-point concentration range of the test compounds spanning 0.01–100 μM.
Background: In ATP-based viability assays light output follows the ATP content of the culture.

Data set [5] has as its system Murine macrophage cells (J774). As to the kind of experiment: Cytotoxicity assay J774, resazurin reduction. The class given is cell-based. The method, then: as §3, §4

As to `COc1ccc(NC[C@H](O)[C@@H](N)Cc2ccccc2)cc1` [LTC-1042, (2S,3S)-3-Amino-1-((4-methoxyphenyl)amino)-4-phenylbutan-2-ol], the melting point was 78 to 80 °C. Besides, the viability at 2.5 µM in [1] (Leishmania infantum, 2.5 µM, read-out: viability, L. infantum promastigote (2.5 µM)) came to 81.7 ± 3.08%. Further, the viability at 25 µM in [1] (Leishmania infantum, 25 µM, read-out: viability, L. infantum promastigote (25 µM)) is 1.85 ± 0.19%. Also, the viability at 25 µM in data set [2] (Leishmania major, read-out: viability, L.major amastigote (25 µM)) amounted to 39 ± 23.4%. Also, the viability at 25 µM in the data set with L. major promastigotes (72 h) turned out to be 86.4 ± 2.46%. In the data set on L. major promastigotes (25 µM), the viability at 25 µM came to 0.03 ± 0.1%. Also, the viability at 2.5 µM in the data set with T. brucei brucei BSF (Trypanosoma brucei, 2.5 µM, read-out: viability, T.brucei (2.5 µM)) was 77.3 ± 2.39%. The viability at 25 µM with T. brucei brucei BSF (Trypanosoma brucei, 25 µM, read-out: viability, T.brucei (25 µM)) amounted to 2.38 ± 1.15%. The viability at 2.5 µM in the data set on T. cruzi trypomastigotes (Trypanosoma cruzi, 2.5 µM, read-out: viability, T.cruzi (2.5 µM)) turned out to be 61.9 ± 1.61%. In addition, in the data set with T. cruzi trypomastigotes (Trypanosoma cruzi, 25 µM, read-out: viability, T.cruzi (25 µM)), the viability at 25 µM amounted to 18.6 ± 2.9%. Further, the viability at 72 h, 2.5 µM in data set [3] (2.5 µM, read-out: viability, J774 (2.5 µM)) was 93.9 ± 4.73%. Also, in [3] (25 µM, read-out: viability, J774 (25 µM)), the viability at 72 h, 25 µM came out at 97.8 ± 15.5%. The viability at 25 µM in data set [4] (J774, 25 µM, intracellular amastigote, read-out: viability, intracellular L. major amastigote (25 µM)) worked out at 67.6 ± 19.8%. The viability at 2.5 µM in the data set with E. histolytica (Entamoeba histolytica, read-out: viability, E.histolytica (2.5 µM)) came out at 106 ± 18%. The viability at 25 µM in the data set on E. histolytica (Entamoeba histolytica, read-out: viability, E.histolytica (25 µM)) worked out at 125 ± 46.5%.

In the case of LTC-4, the “viability, L. infantum promastigote (2.5 µM)” value in data set [1] (2.5 µM) stood at 85.51±1.79. Also, the “viability, L. infantum promastigote (25 µM)” value in data set [1] (25 µM) stood at 24.04±0.45. Further, the “viability, L.major amastigote (25 µM)” value in data set [2] (25 µM) came out at 76.6±1.33. Moreover, the “viability, L.major promastigote (25 µM)” value with L. major promastigotes (25 µM) stood at 1.56±2.86; in the data set on L. major promastigotes (head prints 25 µM, second of two columns with this head), 60.14±7.43. Further, the “viability, T.brucei (2.5 µM)” value in the data set on T. brucei brucei BSF (2.5 µM) came to 100.44±5.5. Besides, in the data set with T. brucei brucei BSF (25 µM), the “viability, T.brucei (25 µM)” value was 89.28±12.34. In the data set on T. cruzi trypomastigotes (2.5 µM), the “viability, T.cruzi (2.5 µM)” value turned out to be 57.84±2.64. The “viability, T.cruzi (25 µM)” value in the data set with T. cruzi trypomastigotes (25 µM) came to 58.59±2.21. In addition, the “viability, J774 (2.5 µM)” value in data set [5] (2.5 µM) was 100.11±5.45. Besides, the “viability, J774 (25 µM)” value in data set [5] (25 µM) stood at 144.21±37.63. The “viability, intracellular L. major amastigote (25 µM)” value in data set [4] (25 µM) worked out at 76.09±31.52. In addition, the “viability, E.histolytica (2.5 µM)” value in the data set with E. histolytica (2.5 µM) is listed as 68±7.58. Moreover, in the data set with E. histolytica (25 µM), the “viability, E.histolytica (25 µM)” value was found to be 71.3±5.74.
